Source: patent US20180282403A1, “AGENTS FOR REDUCING THE ACTIVITY OF GDF15” (GENAGON THERAPEUTICS AB, priority 2015, published 2018)

Experiments:
Type in all cases: cell-based
[1] = system: QRFPR; test: In situ PLA detection of RAB11-QRFPR double positive endosomes in MCF7 cells; conditions: GDF15 stimulation alone; FIG. 5
Excerpt: The RAB11 protein is a marker for recycling endosomes back to the cell surface, and the RAB11 pathway is also involved in exosome assembly (Savina et al., 2005; Savina et al., 2002). RAB11 was thus thought to be a likely candidate to be involved in QRFPR reduction on the cell surface induced by GDF15
An in situ PLA assay was developed to detect the proximity of RAB11 and QRFPR. In the absence of GDF15, only a low signal is observed (FIGS. 5A and 5C).
We choose to use this assay as a way to investigate if the activity of GDF15 could be inhibited by various agents. […] GDF15-induced formation of RAB11/QRFPR endosomes is inhibited by QRFPR peptides (FIG. 9A-D). Equal amounts of a mastermix of GDF15 was aliquoted and pre-incubated in PBS with the various receptor fragment before addition to cells. Sequentially, the cells were treated with either PBS, GDF15 or GDF15/QRFPR-derived peptide mixes.

[2] = target: T1, CLPTM1 (Homo sapiens, UniProt O96005); test: In situ PLA detection of the CLPTM1-TGFBRI complex in NK-92 cells; conditions: GDF15 stimulation, FIG. 14
T1 construct: endogenous in cells; host or cells: NK-92 cells
T1 sequence (O96005 1-669): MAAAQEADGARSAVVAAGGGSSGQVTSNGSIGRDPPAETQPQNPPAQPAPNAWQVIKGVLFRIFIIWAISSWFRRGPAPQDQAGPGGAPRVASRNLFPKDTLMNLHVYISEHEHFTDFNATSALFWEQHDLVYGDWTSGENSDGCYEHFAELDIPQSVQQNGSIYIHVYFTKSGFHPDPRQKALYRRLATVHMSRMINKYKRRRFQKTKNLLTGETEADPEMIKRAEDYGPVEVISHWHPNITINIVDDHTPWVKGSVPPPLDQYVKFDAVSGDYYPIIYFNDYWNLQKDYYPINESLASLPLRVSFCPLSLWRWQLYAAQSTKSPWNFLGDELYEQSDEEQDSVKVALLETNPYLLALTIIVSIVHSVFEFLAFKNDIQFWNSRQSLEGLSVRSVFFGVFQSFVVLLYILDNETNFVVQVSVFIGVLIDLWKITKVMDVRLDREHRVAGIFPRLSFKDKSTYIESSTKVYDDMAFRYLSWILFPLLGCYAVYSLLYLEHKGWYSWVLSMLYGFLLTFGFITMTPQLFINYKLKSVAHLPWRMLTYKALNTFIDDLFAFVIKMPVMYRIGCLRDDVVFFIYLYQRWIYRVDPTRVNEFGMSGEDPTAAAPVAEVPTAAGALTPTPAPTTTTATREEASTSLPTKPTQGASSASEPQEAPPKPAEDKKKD
Method: (§1) GDF15 has been reported in the literature to mediate downstream signalling resembling both the canonical (SMAD) pathway mediated by ALK5(TGFBRI) kinase domain, and non-canonical TGFβ receptor signalling, such as phosphorylation of GSK3b. In order to investigate if CLPTM1 was involved in this we developed a set of in situ PLA assays to determine the dynamics between CLPTM1 and the TGFβ receptors and components downstream of the TGFβ receptors. NK-92 cells were treated with GDF15 for 40 min to detect phosphorylated SMAD proteins such as SMAD2 in the nucleus. […] From previous experiments with TGFB1 stimulation we know that the assay (pSMAD2) was functional.

[3] = target: T1, CLPTM1; test: In situ PLA detection of the CLPTM1-TGFBRII complex in NK cells; conditions: GDF15 treatment; FIG. 15
Excerpt: It was not known whether TGFBRI localised with CLPTM1 independently from the corresponding Type II receptor TGFBRII, or whether the TGFBRI-TGFBRII heterocomplex associated with CLPTM1 upon GDF15 stimulation. In order to determine this, a second in situ PLA assay was developed, using antibodies towards TGFBRII in concert with CLPTM1 antibodies from another species. […] (FIG. 15)

[4] = system: SMAD2; test: Detection of phosphorylated SMAD2 in NK-92 cells; conditions: GDF15 40 min
Method: as §1

## GDF15: Growth and differentiation factor 15, from mammalian source or recombinant from E. coli (Abcam, Biovision)
[1]
  RAB11-QRFPR double positive endosomes: rapid detection of RAB11-QRFPR double positive endosomes
[2]
  proximity between CLPTM1 and TGFBRI(ALK5): induced proximity between CLPTM1 and TGFBRI(ALK5)
[3]
  CLPTM1 proximity to TGFBRII: induced CLPTM1 proximity to TGFBRII
[4]
  c-terminal phosphorylated SMAD 2: failed to detect c-terminal phosphorylated SMAD 2
